US20250034167A1, “HETEROCYCLIC COMPOUNDS AND METHODS OF USE” (AMGEN INC., priority 2021, published 2025)

Columns and labels:
[1] = system: Phosphorylation of ERK1/2 in AsPC-1 cells; experiment: Phospho-ERK1/2 MSD Assay; format: cell-based; details: Homo sapiens, ASPC1, 2 h, read-out: 2 h p-ERK (AsPC-1 cells), IC50, AsPC-1 cells, 2 h compound treatment
Description: Sixteen hours prior to compound treatment, AsPC-1 cells were seeded in 96-well cell culture plates at a density of 25,000 cells/well and incubated at 37° C., 5% CO2. A compound dose-response titration was diluted in growth media, added to appropriate wells of a cell culture plate, and then incubated at 37° C., 5% CO2 for 2 hours.

[2] = target: His-tagged KRAS G12D protein (Homo sapiens, UniProt P01116, G12D); experiment: biochemical
Chain of His-tagged KRAS G12D protein (P01116 1-188 isoform P01116-2 G12D): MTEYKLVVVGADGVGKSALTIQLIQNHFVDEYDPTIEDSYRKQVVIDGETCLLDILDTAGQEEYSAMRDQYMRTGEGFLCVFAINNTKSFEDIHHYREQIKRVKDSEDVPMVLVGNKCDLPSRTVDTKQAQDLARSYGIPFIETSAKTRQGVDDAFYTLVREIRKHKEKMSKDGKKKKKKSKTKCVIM

Structure (SMILES) | IC50 [1] [nM] | IC50 [2] [nM]
CCc1c(F)ccc2cc(O)cc(-c3ncc4c(N5CC6CC(=O)C5C6)nc(OC[C@@]56CCCN5C[C@H](F)C6)nc4c3F)c12 (stereo partly drawn) [Example 72, 2-(7-(8-Ethyl-7-fluoro-3-hydroxynaphthalen-1-yl)-8-fluoro-2-(((2R,7aS)-2-fluorotetrahydro-1H-pyrrolizin-7a(5H)-yl)methoxy)pyrido[4,3-d]pyrimidin-4-yl)-2-azabicyclo[2.2.1]heptan-6-one] | 3240 | 34
CCc1c(F)ccc2cc(O)cc(-c3ncc4c(N5CCCC(S(=O)(=O)NC)C5)nc(OC[C@@]56CCCN5C[C@H](F)C6)nc4c3F)c12 (stereo partly drawn) [Example 79, 1-(7-(8-Ethyl-7-fluoro-3-hydroxynaphthalen-1-yl)-8-fluoro-2-(((2R,7aS)-2-fluorotetrahydro-1H-pyrrolizin-7a(5H)-yl)methoxy)pyrido[4,3-d]pyrimidin-4-yl)-N-methylpiperidine-3-sulfonamide] | 2190 | 5
CCc1c(F)ccc2cc(O)cc(-c3ncc4c(N5CCCCC[C@H]5C)nc(OC[C@@]56CCCN5C[C@H](F)C6)nc4c3F)c12 [Example 80, 5-Ethyl-6-fluoro-4-(8-fluoro-2-(((2R,7aS)-2-fluorotetrahydro-1H-pyrrolizin-7a(5H)-yl)methoxy)-4-((R)-2-methylazepan-1-yl)pyrido[4,3-d]pyrimidin-7-yl)naphthalen-2-ol] | 253 | 2
CCc1c(F)ccc2cc(O)cc(-c3ncc4c(N5CCCCC[C@@H]5C)nc(OC[C@@]56CCCN5C[C@H](F)C6)nc4c3F)c12 [Example 81, 5-Ethyl-6-fluoro-4-(8-fluoro-2-(((2R,7aS)-2-fluorotetrahydro-1H-pyrrolizin-7a(5H)-yl)methoxy)-4-((S)-2-methylazepan-1-yl)pyrido[4,3-d]pyrimidin-7-yl)naphthalen-2-ol] | 1160 | 19
CCc1c(F)ccc2cc(O)cc(-c3ncc4c(N5CC(CS(N)(=O)=O)C5)nc(OC[C@@]56CCCN5C[C@H](F)C6)nc4c3F)c12 [Example 82, (1-(7-(8-Ethyl-7-fluoro-3-hydroxynaphthalen-1-yl)-8-fluoro-2-(((2R,7aS)-2-fluorotetrahydro-1H-pyrrolizin-7a(5H)-yl)methoxy)pyrido[4,3-d]pyrimidin-4-yl)azetidin-3-yl)methanesulfonamide] | > 10000 | 33
CCc1c(F)ccc2cc(O)cc(-c3ncc4c(N5CCC(S(N)(=O)=O)CC5)nc(OC[C@@]56CCCN5C[C@H](F)C6)nc4c3F)c12 [Example 85, 1-(7-(8-Ethyl-7-fluoro-3-hydroxynaphthalen-1-yl)-8-fluoro-2-(((2R,7aS)-2-fluorotetrahydro-1H-pyrrolizin-7a(5H)-yl)methoxy)pyrido[4,3-d]pyrimidin-4-yl)piperidine-4-sulfonamide] | > 10000 | 37
CCc1c(F)ccc2cc(O)cc(-c3ncc4c(N5CCC(S(N)(=O)=O)C5)nc(OC[C@@]56CCCN5C[C@H](F)C6)nc4c3F)c12 (stereo partly drawn) [Example 86, 1-(7-(8-Ethyl-7-fluoro-3-hydroxynaphthalen-1-yl)-8-fluoro-2-(((2R,7aS)-2-fluorotetrahydro-1H-pyrrolizin-7a(5H)-yl)methoxy)pyrido[4,3-d]pyrimidin-4-yl)pyrrolidine-3-sulfonamide] | > 10000 | 64
CCc1c(F)ccc2cc(O)cc(-c3ncc4c(N5CC(S(N)(=O)=O)C5)nc(OC[C@@]56CCCN5C[C@H](F)C6)nc4c3F)c12 [Example 87, 1-(7-(8-Ethyl-7-fluoro-3-hydroxynaphthalen-1-yl)-8-fluoro-2-(((2R,7aS)-2-fluorotetrahydro-1H-pyrrolizin-7a(5H)-yl)methoxy)pyrido[4,3-d]pyrimidin-4-yl)azetidine-3-sulfonamide] | > 10000 | 63
CCc1c(F)ccc2cc(O)cc(-c3ncc4c(N5CC(C(N)=O)C5)nc(OC[C@@]56CCCN5C[C@H](F)C6)nc4c3F)c12 [Example 88, 1-(7-(8-Ethyl-7-fluoro-3-hydroxynaphthalen-1-yl)-8-fluoro-2-(((2R,7aS)-2-fluorotetrahydro-1H-pyrrolizin-7a(5H)-yl)methoxy)pyrido[4,3-d]pyrimidin-4-yl)azetidine-3-carboxamide] | > 10000 | 6
CCc1c(F)ccc2cc(O)cc(-c3ncc4c(N5CC6CCC(C5)C6O)nc(OC[C@@]56CCCN5C[C@H](F)C6)nc4c3F)c12 (stereo partly drawn) [Example 97, 3-(7-(8-Ethyl-7-fluoro-3-hydroxynaphthalen-1-yl)-8-fluoro-2-(((2R,7aS)-2-fluorotetrahydro-1H-pyrrolizin-7a(5H)-yl)methoxy)pyrido[4,3-d]pyrimidin-4-yl)-3-azabicyclo[3.2.1]octan-8-ol] | 1560 | 33

Next, values leading:

IC50 [1] [nM] | IC50 [2] [nM] | Structure (SMILES)
153 | 3 | CCc1c(F)ccc2cc(O)cc(-c3ncc4c(N5CCCC(O)(CC)C5)nc(OC[C@@]56CCCN5C[C@H](F)C6)nc4c3F)c12 (stereo partly drawn) [Example 65, 3-Ethyl-1-(7-(8-ethyl-7-fluoro-3-hydroxynaphthalen-1-yl)-8-fluoro-2-(((2R,7aS)-2-fluorotetrahydro-1H-pyrrolizin-7a(5H)-yl)methoxy)pyrido[4,3-d]pyrimidin-4-yl)piperidin-3-ol]
754 | 18 | CCc1c(F)ccc2cc(O)cc(-c3ncc4c(N5CCC[C@](C)(CO)C5)nc(OC[C@@]56CCCN5C[C@H](F)C6)nc4c3F)c12 [Example 66, 5-Ethyl-6-fluoro-4-(8-fluoro-2-(((2R,7aS)-2-fluorotetrahydro-1H-pyrrolizin-7a(5H)-yl)methoxy)-4-((S)-3-(hydroxymethyl)-3-methylpiperidin-1-yl)pyrido[4,3-d]pyrimidin-7-yl)naphthalen-2-ol]
816 | 19 | CCc1c(F)ccc2cc(O)cc(-c3ncc4c(N5CCC[C@@](C)(CO)C5)nc(OC[C@@]56CCCN5C[C@H](F)C6)nc4c3F)c12 [Example 67, 5-Ethyl-6-fluoro-4-(8-fluoro-2-(((2R,7aS)-2-fluorotetrahydro-1H-pyrrolizin-7a(5H)-yl)methoxy)-4-((R)-3-(hydroxymethyl)-3-methylpiperidin-1-yl)pyrido[4,3-d]pyrimidin-7-yl)naphthalen-2-ol]
1690 | 8 | CCc1c(F)ccc2cc(O)cc(-c3ncc4c(N5CCCC(C)(C(N)=O)C5)nc(OC[C@@]56CCCN5C[C@H](F)C6)nc4c3F)c12 (stereo partly drawn) [Example 68, 1-(7-(8-Ethyl-7-fluoro-3-hydroxynaphthalen-1-yl)-8-fluoro-2-(((2R,7aS)-2-fluorotetrahydro-1H-pyrrolizin-7a(5H)-yl)methoxy)pyrido[4,3-d]pyrimidin-4-yl)-3-methylpiperidine-3-carboxamide]
> 10000 | 2 | CCc1c(F)ccc2cc(O)cc(-c3ncc4c(N5CC(O)(C(N)=O)C5)nc(OC[C@@]56CCCN5C[C@H](F)C6)nc4c3F)c12 [Example 83, 1-(7-(8-Ethyl-7-fluoro-3-hydroxynaphthalen-1-yl)-8-fluoro-2-(((2R,7aS)-2-fluorotetrahydro-1H-pyrrolizin-7a(5H)-yl)methoxy)pyrido[4,3-d]pyrimidin-4-yl)-3-hydroxyazetidine-3-carboxamide]
1290 | 5 | CCc1c(F)ccc2cc(O)cc(-c3ncc4c(N5CCCC(S(C)(=O)=O)C5)nc(OC[C@@]56CCCN5C[C@H](F)C6)nc4c3F)c12 (stereo partly drawn) [Example 84, 5-Ethyl-6-fluoro-4-(8-fluoro-2-(((2R,7aS)-2-fluorotetrahydro-1H-pyrrolizin-7a(5H)-yl)methoxy)-4-(3-(methylsulfonyl)piperidin-1-yl)pyrido[4,3-d]pyrimidin-7-yl)naphthalen-2-ol]
> 3000 | 9 | CCc1c(F)ccc2cc(O)cc(-c3ncc4c(N5CCCC(C(=O)NC)C5)nc(OC[C@@]56CCCN5C[C@H](F)C6)nc4c3F)c12 (stereo partly drawn) [Example 89, 1-(7-(8-Ethyl-7-fluoro-3-hydroxynaphthalen-1-yl)-8-fluoro-2-(((2R,7aS)-2-fluorotetrahydro-1H-pyrrolizin-7a(5H)-yl)methoxy)pyrido[4,3-d]pyrimidin-4-yl)-N-methylpiperidine-3-carboxamide]
6620 | 83 | CCc1c(F)ccc2cc(O)cc(-c3ncc4c(N5CC(C)(O)C5)nc(OC[C@@]56CCCN5C[C@H](F)C6)nc4c3F)c12 [Example 92, 1-(7-(8-Ethyl-7-fluoro-3-hydroxynaphthalen-1-yl)-8-fluoro-2-(((2R,7aS)-2-fluorotetrahydro-1H-pyrrolizin-7a(5H)-yl)methoxy)pyrido[4,3-d]pyrimidin-4-yl)-3-methylazetidin-3-ol]
100 | 2 | CCc1c(F)ccc2cc(O)cc(-c3ncc4c(N5CCCCCCC5)nc(OC[C@@]56CCCN5C[C@H](F)C6)nc4c3F)c12 [Example 93, 4-(4-(Azocan-1-yl)-8-fluoro-2-(((2R,7aS)-2-fluorotetrahydro-1H-pyrrolizin-7a(5H)-yl)methoxy)pyrido[4,3-d]pyrimidin-7-yl)-5-ethyl-6-fluoronaphthalen-2-ol]
2840 | 80 | CCc1c(F)ccc2cc(O)cc(-c3ncc4c(N5CC6CCC(C5)C6(C)O)nc(OC[C@@]56CCCN5C[C@H](F)C6)nc4c3F)c12 (stereo partly drawn) [Example 98, 3-(7-(8-Ethyl-7-fluoro-3-hydroxynaphthalen-1-yl)-8-fluoro-2-(((2R,7aS)-2-fluorotetrahydro-1H-pyrrolizin-7a(5H)-yl)methoxy)pyrido[4,3-d]pyrimidin-4-yl)-8-methyl-3-azabicyclo[3.2.1]octan-8-ol]
794 | 11 | CCc1c(F)ccc2cc(O)cc(-c3ncc4c(N5CCC6CC6(O)C5)nc(OC[C@@]56CCCN5C[C@H](F)C6)nc4c3F)c12 (stereo partly drawn) [Example 99, 3-(7-(8-Ethyl-7-fluoro-3-hydroxynaphthalen-1-yl)-8-fluoro-2-(((2R,7aS)-2-fluorotetrahydro-1H-pyrrolizin-7a(5H)-yl)methoxy)pyrido[4,3-d]pyrimidin-4-yl)-3-azabicyclo[4.1.0]heptan-1-ol]
